Test results as given in patent US6355799B1, “Substituted benzene compounds, process for their preparation, and herbicidal and defoliant compositions containing them” (ISK Americas Incorporated, priority 1997, dated 2002).

What was measured:
Assay type in all cases: in vivo
[1] = system: redroot pigweed (Amaranthus retroflexus, AMARE); assay: Pre-emerge test, greenhouse herbicide activity screening; conditions: pre-emerge, rated 14 days after application, 0 = no damage, 100 = complete death
How it was run: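 Plants grown in 10 cm pots of sandy loam mix received acetone-dissolved compounds through a moving flat-fan nozzle. Doses ranged from 15 to 1000 g ai/ha. Pre-emerge pots were seeded one day earlier, post-emerge pots 8–21 days earlier. Fourteen days on, each pot was graded 0–100 for damage.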

[2] = system: sicklepod (Cassia obtusifolia, CASOB); assay: as above; conditions: pre-emerge, rated 14 days after application, 0 = no damage, 100 = complete death
How it was run: (§1)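 Sandy loam pots; pre-emerge: sown 1 d pre-spray, surface-watered after, then bottom-watered. Post-emerge: sown 8–21 d before, 2–3 leaf stage, + 0.25% v/v NIS, bottom-watered. Acetone, 187 l/ha track spray, 15–1000 g ai/ha. 0–100 injury score, day 14.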

[3] = system: ivyleaf morningglory (Ipomoea hederacea, IPOHE); assay: as above; conditions: pre-emerge, rated 14 days after application, 0 = no damage, 100 = complete death
How it was run: as §1

[4] = system: velvetleaf (Abutilon theophrasti, ABUTH); assay: as above; conditions: pre-emerge, rated 14 days after application, 0 = no damage, 100 = complete death
How it was run: as §1

[5] = system: green foxtail (Setaria viridis, SETVI); assay: as above; conditions: pre-emerge, rated 14 days after application, 0 = no damage, 100 = complete death
How it was run: as §1

[6] = system: johnsongrass (Sorghum halepense, SORHA); assay: as above; conditions: pre-emerge, rated 14 days after application, 0 = no damage, 100 = complete death
How it was run: as §1

[7] = system: common ragweed (Ambrosia artemisizfolia L., AMBEL); assay: as above; conditions: pre-emerge, rated 14 days after application, 0 = no damage, 100 = complete death
How it was run: as §1

[8] = system: lambsquarters (Chenopodium album, CHEAL); assay: as above; conditions: pre-emerge, rated 14 days after application, 0 = no damage, 100 = complete death
How it was run: as §1

[9] = system: large crabgrass (Digitaria sanguinalis, DIGSA); assay: as above; conditions: pre-emerge, rated 14 days after application, 0 = no damage, 100 = complete death
How it was run: as §1

[10] = system: barnyardgrass (Echinochloa crus-galli, ECHCG); assay: as above; conditions: pre-emerge, rated 14 days after application, 0 = no damage, 100 = complete death
How it was run: as §1

[11] = system: upland rice (Oryza sp., var. Tebonnet, RICE); assay: Pre-emerge test, crop safety; conditions: pre-emerge, rated 14 days after application, 0 = no damage, 100 = complete death
How it was run: (§2)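 Applied at 15–1000 g ai/ha from acetone in 187 l/ha spray volume. Post-emergence applications included 0.25% v/v non-ionic surfactant and reached plants sown 8–21 days before. Pre-emergence applications were incorporated by surface watering. Efficacy or crop damage was rated on a 0–100 scale after 14 days.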

[12] = system: field corn (Zea mays L., var. Dekalb 535, CORN); assay: Pre-emerge test, crop safety; conditions: pre-emerge, rated 14 days after application, 0 = no damage, 100 = complete death
How it was run: as §2

[13] = system: sicklepod (Cassia obtusifolia, CASOB); assay: Post-emerge test, greenhouse herbicide activity screening; conditions: phytotoxicity rating 0-100 (0 no damage, 100 complete death), 14 days after application
How it was run: (§3)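 Herbicidal damage is scored 0 (none) to 100 (complete plant death) two weeks after a simulated field spray. Rates span 15–1000 g ai/ha, delivered in acetone at 187 l/ha. For post-emergence treatments, plants have 2–3 leaves and the spray carries 0.25% v/v non-ionic surfactant.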

[14] = system: ivyleaf morningglory (Ipomoea hederacea, IPOHE); assay: as above; conditions: phytotoxicity rating 0-100 (0 no damage, 100 complete death), 14 days after application
How it was run: as §3

[15] = system: velvetleaf (Abutilon theophrasti, ABUTH); assay: as above; conditions: phytotoxicity rating 0-100 (0 no damage, 100 complete death), 14 days after application
How it was run: as §3

[16] = system: green foxtail (Setaria viridis, SETVI); assay: as above; conditions: phytotoxicity rating 0-100 (0 no damage, 100 complete death), 14 days after application
How it was run: as §3

[17] = system: redroot pigweed (Amaranthus retroflexus, AMARE); assay: as above; conditions: phytotoxicity rating 0-100 (0 no damage, 100 complete death), 14 days after application
How it was run: as §3

[18] = system: johnsongrass (Sorghum halepense, SORHA); assay: as above; conditions: phytotoxicity rating 0-100 (0 no damage, 100 complete death), 14 days after application
How it was run: as §3

[19] = system: common ragweed (Ambrosia artemisizfolia L., AMBEL); assay: as above; conditions: phytotoxicity rating 0-100 (0 no damage, 100 complete death), 14 days after application
How it was run: as §3

[20] = system: lambsquarters (Chenopodium album, CHEAL); assay: as above; conditions: phytotoxicity rating 0-100 (0 no damage, 100 complete death), 14 days after application
How it was run: as §3

[21] = system: large crabgrass (Digitaria sanguinalis, DIGSA); assay: as above; conditions: phytotoxicity rating 0-100 (0 no damage, 100 complete death), 14 days after application
How it was run: as §3

[22] = system: barnyardgrass (Echinochloa crus-galli, ECHCG); assay: as above; conditions: phytotoxicity rating 0-100 (0 no damage, 100 complete death), 14 days after application
How it was run: as §3

[23] = system: upland rice (Oryza sp., var. Tebonnet, RICE); assay: Post-emerge test, crop safety; conditions: phytotoxicity rating 0-100 (0 no damage, 100 complete death), 14 days after application
How it was run: as §1

[24] = system: field corn (Zea mays L., var. Dekalb 535, CORN); assay: Post-emerge test, crop safety; conditions: phytotoxicity rating 0-100 (0 no damage, 100 complete death), 14 days after application
How it was run: as §1

Cn1c(C(F)(F)F)cc(=O)n(-c2c(F)cc(Cl)c(OC3CCCC3)c2N)c1=O [Compound 1-21]
10: Pre-emerge crop damage RICE (phytotoxicity rating, scale 0-100) ([11]; 250 g ai/ha) | Post-emerge Herbicidal Activity CASOB ([13]; 63 g ai/ha) | Post-emerge Herbicidal Activity SETVI ([16]; 63 g ai/ha) | Post-emerge Herbicidal Activity AMBEL ([19]; 63 g ai/ha) | Post-emerge Herbicidal Activity RICE (crop damage) ([23]; 63 g ai/ha) | Post-emerge Herbicidal Activity RICE (crop damage) ([23]; 250 g ai/ha)
30: Post-emerge Herbicidal Activity CASOB ([13]; 250 g ai/ha) | Post-emerge Herbicidal Activity SETVI ([16]; 250 g ai/ha) | Post-emerge Herbicidal Activity AMBEL ([19]; 250 g ai/ha)
0: Pre-emerge Herbicidal Activity CASOB (phytotoxicity rating, scale 0-100) ([2]; 63 g ai/ha) | Pre-emerge Herbicidal Activity CASOB (phytotoxicity rating, scale 0-100) ([2]; 250 g ai/ha) | Pre-emerge Herbicidal Activity IPOHE (phytotoxicity rating, scale 0-100) ([3]; 63 g ai/ha) | Pre-emerge Herbicidal Activity SORHA (phytotoxicity rating, scale 0-100) ([6]; 63 g ai/ha) | Pre-emerge Herbicidal Activity AMBEL (phytotoxicity rating, scale 0-100) ([7]; 63 g ai/ha) | Pre-emerge Herbicidal Activity ECHCG (phytotoxicity rating, scale 0-100) ([10]; 63 g ai/ha) | Pre-emerge crop damage RICE (phytotoxicity rating, scale 0-100) ([11]; 63 g ai/ha) | Pre-emerge crop damage CORN (phytotoxicity rating, scale 0-100) ([12]; 63 g ai/ha) | Pre-emerge crop damage CORN (phytotoxicity rating, scale 0-100) ([12]; 250 g ai/ha) | Post-emerge Herbicidal Activity SORHA ([18]; 63 g ai/ha) | Post-emerge Herbicidal Activity SORHA ([18]; 250 g ai/ha) | Post-emerge Herbicidal Activity DIGSA ([21]; 63 g ai/ha) | Post-emerge Herbicidal Activity DIGSA ([21]; 250 g ai/ha) | Post-emerge Herbicidal Activity ECHCG ([22]; 63 g ai/ha) | Post-emerge Herbicidal Activity ECHCG ([22]; 250 g ai/ha)
100: Pre-emerge Herbicidal Activity AMARE (phytotoxicity rating, scale 0-100) ([1]; 250 g ai/ha) | Pre-emerge Herbicidal Activity ABUTH (phytotoxicity rating, scale 0-100) ([4]; 250 g ai/ha) | Pre-emerge Herbicidal Activity SETVI (phytotoxicity rating, scale 0-100) ([5]; 250 g ai/ha) | Pre-emerge Herbicidal Activity AMBEL (phytotoxicity rating, scale 0-100) ([7]; 250 g ai/ha) | Pre-emerge Herbicidal Activity CHEAL (phytotoxicity rating, scale 0-100) ([8]; 63 g ai/ha) | Pre-emerge Herbicidal Activity CHEAL (phytotoxicity rating, scale 0-100) ([8]; 250 g ai/ha) | Pre-emerge Herbicidal Activity DIGSA (phytotoxicity rating, scale 0-100) ([9]; 250 g ai/ha) | Post-emerge Herbicidal Activity ABUTH ([15]; 250 g ai/ha) | Post-emerge Herbicidal Activity AMARE ([17]; 250 g ai/ha)
90: Pre-emerge Herbicidal Activity SORHA (phytotoxicity rating, scale 0-100) ([6]; 250 g ai/ha) | Post-emerge Herbicidal Activity IPOHE ([14]; 250 g ai/ha)
85: Post-emerge Herbicidal Activity ABUTH ([15]; 63 g ai/ha)
70: Pre-emerge Herbicidal Activity ABUTH (phytotoxicity rating, scale 0-100) ([4]; 63 g ai/ha) | Pre-emerge Herbicidal Activity DIGSA (phytotoxicity rating, scale 0-100) ([9]; 63 g ai/ha) | Post-emerge Herbicidal Activity IPOHE ([14]; 63 g ai/ha)
40: Pre-emerge Herbicidal Activity IPOHE (phytotoxicity rating, scale 0-100) ([3]; 250 g ai/ha)
98: Pre-emerge Herbicidal Activity AMARE (phytotoxicity rating, scale 0-100) ([1]; 63 g ai/ha)
75: Post-emerge Herbicidal Activity CHEAL ([20]; 63 g ai/ha)
95: Pre-emerge Herbicidal Activity SETVI (phytotoxicity rating, scale 0-100) ([5]; 63 g ai/ha) | Pre-emerge Herbicidal Activity ECHCG (phytotoxicity rating, scale 0-100) ([10]; 250 g ai/ha) | Post-emerge Herbicidal Activity AMARE ([17]; 63 g ai/ha) | Post-emerge Herbicidal Activity CHEAL ([20]; 250 g ai/ha)
5: Post-emerge Herbicidal Activity CORN (crop damage) ([24]; 63 g ai/ha) | Post-emerge Herbicidal Activity CORN (crop damage) ([24]; 250 g ai/ha)
